{
  "source": "patent US20250074943A1",
  "about": "“DLL3 BINDING PEPTIDES AND USES THEREOF” (AMGEN INC., priority 2021, published 2025)",
  "key": {"rhDLL3-Fc": {"target": "T1, rhDLL3-Fc (Homo sapiens, UniProt Q9NYJ7)", "T1 construct": "The recombinant DLL3 ectodomain (rhDLL3-Fc) was biotinylated; Fc", "T1 sequence (Q9NYJ7 27-492 limits assumed)": "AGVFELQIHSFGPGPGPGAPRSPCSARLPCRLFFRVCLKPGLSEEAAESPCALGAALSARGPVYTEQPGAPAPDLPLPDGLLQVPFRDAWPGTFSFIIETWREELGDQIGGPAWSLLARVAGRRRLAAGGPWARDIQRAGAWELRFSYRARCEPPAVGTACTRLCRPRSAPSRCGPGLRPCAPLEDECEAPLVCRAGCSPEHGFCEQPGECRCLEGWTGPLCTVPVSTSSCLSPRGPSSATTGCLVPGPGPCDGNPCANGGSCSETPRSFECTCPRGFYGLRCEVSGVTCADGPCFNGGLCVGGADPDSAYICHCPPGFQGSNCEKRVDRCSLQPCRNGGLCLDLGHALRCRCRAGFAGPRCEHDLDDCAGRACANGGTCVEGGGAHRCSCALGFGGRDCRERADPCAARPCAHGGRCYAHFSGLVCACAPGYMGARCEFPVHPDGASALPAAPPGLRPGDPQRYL", "assay": "SPR binding / off-rate screening (Biacore T200)", "conditions": "for binding to rhDLL3-Fc, complex half-life: single point SPR; for koff: read-out: koff; for kon: read-out: kon", "description": "[…] The recombinant DLL3 ectodomain (rhDLL3-Fc) was biotinylated using EZ-Link Sulfo-NHS-LC-LC-Biotin Kit according to the manufacturer's protocol (Pierce by Thermo Fisher Scientific). The recombinant protein was incubated with an excess of NHS-LC-LC Biotin ester, in a molar ratio of 1:3 (protein: biotin), at 25° C. for 90 min. The un-reacted biotin ester was removed by subsequent buffer exchange on 0.5 ml Zeba spin desalting columns 7K MWCO (Pierce by Thermo Fisher Scientific).\nThe off-rate screening of the peptides was done using a Biacore T200 instrument (Cytiva, Sweden). […] Sensorgrams were analyzed by Biacore T200 Evaluation Software 3.0 (Cytiva, Sweden): specific binding was obtained by subtracting unspecific binding to naked biosensors and a zero analyte concentration made of binding assay buffer (double referencing). […]"}, "[1]": {"target": "T2, native huDLL3 on the surface of cells (CHO cells) (Homo sapiens, UniProt Q9NYJ7)", "T2 construct": "expressed in transfected cells; host or cells: CHO (CHO-huDLL3)", "T2 sequence (Q9NYJ7 27-618)": "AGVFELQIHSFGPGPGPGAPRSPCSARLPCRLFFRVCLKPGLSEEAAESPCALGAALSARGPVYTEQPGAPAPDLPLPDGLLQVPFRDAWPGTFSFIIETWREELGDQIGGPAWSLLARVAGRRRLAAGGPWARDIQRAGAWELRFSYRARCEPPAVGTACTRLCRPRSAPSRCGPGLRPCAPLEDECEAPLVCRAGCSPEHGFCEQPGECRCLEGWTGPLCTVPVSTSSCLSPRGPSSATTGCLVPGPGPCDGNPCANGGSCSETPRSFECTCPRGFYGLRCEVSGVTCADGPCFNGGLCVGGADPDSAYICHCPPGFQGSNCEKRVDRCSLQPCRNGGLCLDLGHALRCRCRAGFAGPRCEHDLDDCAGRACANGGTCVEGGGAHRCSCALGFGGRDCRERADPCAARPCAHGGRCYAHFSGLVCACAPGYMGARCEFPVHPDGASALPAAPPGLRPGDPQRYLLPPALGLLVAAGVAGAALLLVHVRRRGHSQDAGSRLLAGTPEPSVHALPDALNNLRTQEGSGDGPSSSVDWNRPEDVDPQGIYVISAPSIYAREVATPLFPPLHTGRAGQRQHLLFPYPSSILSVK", "assay": "Flow cytometry competition with AF647-labelled peptide", "type": "cell-based", "conditions": "compared with monomer PepSP1146", "description": "HEK293-huDLL3, CHO-huDLL3 and the corresponding parental cell lines were detached with EDTA 2.5 mM and re-suspended at 1.8×10^6 cells/ml in FACS buffer (1×PBS, 2% FBS), distributed at 500 μl per testing tube and pelleted 5 min at 1300 rpm in a Heraeus Multifuge […] centrifuge."}, "[2]": {"target": "T3, recombinant DLL3 ectodomain (rhDLL3-Fc) (Homo sapiens, UniProt Q9NYJ7)", "T3 construct": "The recombinant DLL3 ectodomain (rhDLL3-Fc) was biotinylated; Fc", "T3 sequence (Q9NYJ7 27-492 limits assumed)": "T1 sequence (Q9NYJ7 27-492 limits assumed)", "assay": "Binding kinetic assay using Bio-layer interferometry (BLI)"}, "[3]": {"conditions": "Table 7, curve fitting of SPR sensorgrams"}, "[4]": {"conditions": "Table 8, curve fitting of SPR sensorgrams"}},
  "note": "Where two headings read alike, the source gives them in different places. Numbered stars: 1 amine (or outer) side, 2 acyl side, 3 side chain; on linkers, the order of the positions; unused ones are H or OH. Bridge positions count the residues as written; N and C are the ends. Square brackets hold non-standard residues; d marks the D form. Primed or numbered codes have the meaning given here. Peptide text beside a SMILES is read from it. * marks the point of attachment. K(PEG4-DBCO-FEA) = Lys whose side chain carries PEG4-DBCO conjugated to fluoroethylazide (FEA); Ttds(4) = trioxatridecan-succinamic acid (linker), O=C(CCC(=O)[*:2])NCCCOCCOCCOCCCN[*:1]; Ttds(3) = Trioxatridecan-succinamic acid linker, O=C(CCC(=O)[*:2])NCCCOCCOCCOCCCN[*:1]; X6 = CCOCCOCCOCCOCc1cn(CCCC[C@@H]2CC(=O)C(CC(=O)NCCCOCCOCCOCCCN*)NC2=O)nn1; X4 = CC(C(=O)CN[*:1])[C@@H](C(=O)[*:2])[C@H](C)O; X5 = O=C([C@@H](CC1=CCc2ccccc21)N[*:1])[*:2]; Isobutyryl = CC(C)C(=O)*",
  "data": [
    {"molecule": "[Ac-AETVEFWWCNGNSENWTCTW-GG-Ttds-K(PEG3)]2-PEG4-DBCO-FEA (Ac-AETVEFWWCNGNSENWTCTWGG-{Ttds(4)-K(PEG3)}; not fully specified (bridges); printed as [Ac-AETVEFWWCNGNSENWTCTW-GG-Ttds-K(PEG3)]2-PEG4-DBCO-FEA; cysteine pairing not given here; also: dimer linked via PEG4-DBCO-FEA) [PepSP1581]", "values": [
      {"measurement": "binding to rhDLL3-Fc, complex half-life", "setting": "rhDLL3-Fc", "value": "tight rhDLL3-Fc binders with a stable complex half-life"}
    ]},
    {"molecule": "Ac-AETVEFWWCNGNSENWTCTW-GG-Ttds-K(PEG4-DBCO-FEA)-NH2 (Ac-AETVEFWWCNGNSENWTCTWGG-{Ttds(3)-K(PEG4-DBCO-FEA)-NH2}; cysteine pairing not given here) [PepSP1538]", "values": [
      {"measurement": "binding to rhDLL3-Fc, complex half-life", "setting": "rhDLL3-Fc", "value": "tight rhDLL3-Fc binders with a stable complex half-life"}
    ]},
    {"molecule": "CCOCCOCCOCCOCc1cn(CCCC[C@@H]2CC(=O)C(CC(=O)NCCCOCCOCCOCCCNC(=O)[C@@H](Cc3c[nH]c4ccccc34)NC(=O)[C@@H](CC3=CCc4ccccc43)NC(=O)[C@H]3CSSC[C@@H](NC(=O)CNC(=O)[C@@H](Cc4c[nH]c5ccccc45)NC(=O)[C@@H](Cc4ccccc4)NC(=O)[C@@H](CCC(=O)O)NC(=O)[C@H](NC(=O)[C@H](NC(=O)[C@@H](CCC(=O)O)NC(=O)C(C)C)[C@H](C)O)C(C)C)C(=O)N[C@H]([C@H](C)O)C(=O)NCC(=O)C(C)[C@H]([C@H](C)O)C(=O)N[C@H](Cc4c[nH]c5ccccc45)C(=O)NCC(=O)N[C@H](CC(N)=O)C(=O)N[C@H](CCC(=O)O)C(=O)N[C@H]([C@H](C)O)C(=O)N3)NC2=O)nn1", "note": "(stereo partly shown) [PepSP1272] (Isobutyryl-[dE][dT][dV][dE][dF][dW]G[dC][dT][X4][dW]G[dN][dE][dT][dC][X5][dW]-X6; disulfide 8-16)", "values": [
      {"measurement": "koff", "setting": "rhDLL3-Fc; [3]", "value": "5.5e-05", "unit": "s⁻¹"},
      {"measurement": "kon", "setting": "rhDLL3-Fc; [3]", "value": 90000, "unit": "M⁻¹ s⁻¹"},
      {"measurement": "efficiency in competing the binding of the AF647-labelled PepSP1146", "setting": "[1]", "value": "higher efficiency"}
    ]},
    {"molecule": "CC(C)[C@H](NC(=O)[C@@H](NC(=O)[C@H](CCC(=O)O)NC(=O)[C@H](C)N)[C@@H](C)O)C(=O)N[C@@H](CCC(=O)O)C(=O)N[C@@H](Cc1ccccc1)C(=O)N[C@@H](Cc1c[nH]c2ccccc12)C(=O)N[C@@H](Cc1c[nH]c2ccccc12)C(=O)N[C@H]1CSSC[C@@H](C(=O)N[C@H](C(=O)N[C@@H](Cc2c[nH]c3ccccc23)C(N)=O)[C@@H](C)O)NC(=O)[C@H]([C@@H](C)O)NC(=O)[C@H](Cc2c[nH]c3ccccc23)NC(=O)[C@H](CC(N)=O)NC(=O)[C@H](CCC(=O)O)NC(=O)[C@H](CO)NC(=O)[C@H](CC(N)=O)NC(=O)CNC(=O)[C@H](CC(N)=O)NC1=O", "note": "[PepSP1171]", "values": [
      {"measurement": "Kd", "setting": "rhDLL3-Fc; [4]", "value": 70, "unit": "nM"},
      {"measurement": "koff", "setting": "rhDLL3-Fc; [4]", "value": 0.0097, "unit": "s⁻¹"},
      {"measurement": "kon", "setting": "rhDLL3-Fc; [4]", "value": 140000, "unit": "M⁻¹ s⁻¹"},
      {"measurement": "Kd", "setting": "[2]; Table 4, global fitting 1:1 Langmuir, koff vs kon ratio, ± values from three independent experiments", "value": "70 ± 19", "unit": "nM"},
      {"measurement": "residence time", "setting": "[2]; Table 4, ± values from three independent experiments, read-out: RT (residence time) (converted)", "value": 1.83, "unit": "min"},
      {"measurement": "binding mode to DLL3", "setting": "[2]; peptides at 20, 4 and 0.8 μM, fit to 1:1 Langmuir binding model", "value": "dose-response saturable binding"},
      {"measurement": "residence time", "setting": "[2]; range over the seven peptides, read-out: residence time", "value": "1 to 3", "unit": "min"},
      {"measurement": "affinity", "setting": "[2]; wider dose-response 10×KD to 0.1×KD", "value": "double-digit nM range"}
    ]},
    {"molecule": "[Ac-AETVEFWWCNGNSENWTCTW-GG-Ttds-K(PEG4-PEG3)]2-PEG4-DBCO-FEA [PepSP1582]", "values": [
      {"measurement": "binding to rhDLL3-Fc, complex half-life", "setting": "rhDLL3-Fc", "value": "tight rhDLL3-Fc binders with a stable complex half-life"}
    ]},
    {"molecule": "CCCCOCCOCCOCCC(=O)CCCCCCCCCCCCCCCC(=O)CCC(=O)NCCCOCCOCCOCCCNC(=O)CCC(=O)CCCCC[C@@H](CC(=O)CCC(=O)NCCCOCCOCCOCCCNC(=O)CNC(=O)CNC(=O)[C@@H](Cc1c[nH]c2ccccc12)NC(=O)[C@H](CC(=O)[C@H]1CCCC[C@@H](CN[C@@H](Cc2c[nH]c3ccccc23)NC(=O)[C@@H](Cc2c[nH]c3ccccc23)NC(=O)[C@H](CC(=O)[C@@H](CCC(=O)O)CC(=O)[C@H](CC(=O)[C@](C)(NC(=O)[C@@H](CCC(C)=O)CC(=O)CCC(C)=O)C(C)C)C(C)C)Cc2ccccc2)C(=O)C[C@H](CC(C)=O)C(=O)NCC(=O)NC(CC(C)=O)C(=O)C[C@H](CC)C(=O)NC(CCC(C)=O)C(=O)C[C@H](CC(C)=O)C(=O)CC(Cc2c[nH]c3ccccc23)C(=O)C[C@H]([C@H](C)O)C(=O)C1)[C@H](C)O)C(C)=O", "note": "(stereo partly shown) [PepSP1489]", "values": [
      {"measurement": "koff", "setting": "rhDLL3-Fc; [4]", "value": 0.00037, "unit": "s⁻¹"},
      {"measurement": "kon", "setting": "rhDLL3-Fc; [4]", "value": 110000, "unit": "M⁻¹ s⁻¹"}
    ]}
  ]
}
